# Assay results taken from US20230414599A1, “NICOTINAMIDE, NICOTINAMIDE PRECURSORS AND NICOTINAMIDE METABOLITES AND COMPOSITIONS THEREOF FOR REDUCING THE TIME TO RESOLUTION OF SYMPTOMS IN PATIENTS WITH COVID-19 AND OTHER VIRAL INFECTIONS” (CONARIS RESEARCH INSTITUTE AG, priority 2020, published 2023).
# Assays:
# COVID-19 [1] = assay: Pilot phase of the COVit-1 dietary intervention trial (n = 16 outpatients); assay type: in vivo
# COVID-19 [2] = assay: COVit-1 trial expanded to 56 patients (nicotinamide vs silica); assay type: in vivo; settings: for Absolute Risk difference of being symptom-free, 95% Confidence Level: nicotinamide vs silica; for Relative Risk of being symptom-free: silica = REF
# [3] = 1,000 mg/day immediate-release, n = 8, up to 21 days after positive SARS-CoV-2 test
# [4] = 1,000 mg/day, n = 8, up to 21 days after positive test
# [5] = only patients with symptoms persisting at week 4 queried, n = 3
# [6] = baseline, before supplementation, n = 28
# [7] = reduction at week 2 vs baseline, generalized linear mixed model
# [8] = week 2, 1,000 mg/day immediate-release, n = 28
smiles,measurement,setting,value
"NC(=O)c1cccnc1 [Nicotinamide, nicotinamide]",Proportion of subjects still suffering from at least one COVID-19 symptom at or before day 21 after first testing positive,"COVID-19 [1]; 1,000 mg nicotinamide per day for 28 days, n = 8",50%
same,Patients with anorexia/loss of appetite at week 2,COVID-19 [1]; [3],0
same,Patients with arthralgia at week 2,COVID-19 [1]; [3],0
same,Patients with chest pain at week 2,COVID-19 [1]; [3],0
same,Patients with cough at week 2,COVID-19 [1]; [3],2
same,Patients with diarrhoea at week 2,COVID-19 [1]; [3],1
same,Patients with dyspnoea/shortness of breath at week 2,COVID-19 [1]; [3],2
same,Patients with fatigue at week 2,COVID-19 [1]; [3],2
same,Patients with fever (total) at week 2,COVID-19 [1]; [3],1
same,Patients with fever <38° C. at week 2,COVID-19 [1]; [3],1
same,Patients with fever >38° C. at week 2,COVID-19 [1]; [3],1
same,Patients with headache at week 2,COVID-19 [1]; [3],1
same,Patients with impaired sense of smell at week 2,COVID-19 [1]; [3],1
same,Patients with impaired sense of taste at week 2,COVID-19 [1]; [3],1
same,Patients with myalgia at week 2,COVID-19 [1]; [3],0
same,Patients with reduced physical performance at week 2,COVID-19 [1]; [3],2
same,Patients with rhinorrhoea at week 2,COVID-19 [1]; [3],1
same,Patients with sore throat/pharyngalgia at week 2,COVID-19 [1]; [3],0
same,Patients with sputum production at week 2,COVID-19 [1]; [3],1
same,Patients with vomiting at week 2,COVID-19 [1]; [3],0
same,Patients requiring hospitalisation before week 2,"COVID-19 [1]; 1,000 mg/day, n = 8",no patient
same,Patients with persisting symptoms at week 4,"COVID-19 [1]; 1,000 mg/day, n = 8",3
same,Symptom-free patients at week 4,"COVID-19 [1]; 1,000 mg/day, n = 8",5
same,Patients with persisting symptoms at week 2,COVID-19 [1]; [4],4
same,Symptom-free patients at week 2,COVID-19 [1]; [4],4
same,Patients with persisting symptoms at week 6,COVID-19 [1]; [5],2
same,Symptom-free patients at week 6,COVID-19 [1]; [5],1
same,"Chest pain, patients with symptom",COVID-19 [2]; [6],25.0%
same,"Cough with sputum, patients with symptom",COVID-19 [2]; [6],25.0%
same,"Cough, patients with symptom",COVID-19 [2]; [6],71.4%
same,"Diarrhoea, patients with symptom",COVID-19 [2]; [6],28.6%
same,"Fatigue, patients with symptom",COVID-19 [2]; [6],82.1%
same,"Fever, patients with symptom",COVID-19 [2]; [6],50.0%
same,"Head cold (rhinorrhoea), patients with symptom",COVID-19 [2]; [6],78.6%
same,"Headache, patients with symptom",COVID-19 [2]; [6],78.6%
same,"Impaired sense of smell, patients with symptom",COVID-19 [2]; [6],60.7%
same,"Impaired sense of taste, patients with symptom",COVID-19 [2]; [6],64.3%
same,"Joint pain, patients with symptom",COVID-19 [2]; [6],35.7%
same,"Loss of appetite, patients with symptom",COVID-19 [2]; [6],42.9%
same,"Muscle pain, patients with symptom",COVID-19 [2]; [6],50.0%
same,"Other (individually reported) symptoms, patients with symptom",COVID-19 [2]; [6],28.6%
same,"Reduced physical performance, patients with symptom",COVID-19 [2]; [6],82.1%
same,"Shortness of breath, patients with symptom",COVID-19 [2]; [6],28.6%
same,"Sore throat, patients with symptom",COVID-19 [2]; [6],35.7%
same,"Vomiting, patients with symptom",COVID-19 [2]; [6],3.6%
same,"Loss of appetite, OR estimate nicotinamide vs. silica","COVID-19 [2]; reduction at week 2 vs baseline, footnote: OR very high",>>^‡
same,"Vomiting, OR estimate nicotinamide vs. silica","COVID-19 [2]; reduction at week 2 vs baseline, footnote: OR very high (unstable due to the small sample)",>>^‡‡
same,"Chest pain, OR estimate nicotinamide vs. silica",COVID-19 [2]; [7],12.7
same,"Cough with sputum, OR estimate nicotinamide vs. silica",COVID-19 [2]; [7],4.64
same,"Cough, OR estimate nicotinamide vs. silica",COVID-19 [2]; [7],1.01
same,"Diarrhoea, OR estimate nicotinamide vs. silica",COVID-19 [2]; [7],0.84
same,"Fatigue, OR estimate nicotinamide vs. silica",COVID-19 [2]; [7],2.72
same,"Fever, OR estimate nicotinamide vs. silica",COVID-19 [2]; [7],1.40
same,"Head cold (rhinorrhoea), OR estimate nicotinamide vs. silica",COVID-19 [2]; [7],1.41
same,"Headache, OR estimate nicotinamide vs. silica",COVID-19 [2]; [7],1.27
same,"Impaired sense of smell, OR estimate nicotinamide vs. silica",COVID-19 [2]; [7],2.05
same,"Impaired sense of taste, OR estimate nicotinamide vs. silica",COVID-19 [2]; [7],1.24
same,"Joint pain, OR estimate nicotinamide vs. silica",COVID-19 [2]; [7],2.74
same,"Muscle pain, OR estimate nicotinamide vs. silica",COVID-19 [2]; [7],1.09
same,"Other (individually reported) symptoms, OR estimate nicotinamide vs. silica",COVID-19 [2]; [7],1.07
same,"Reduced physical performance, OR estimate nicotinamide vs. silica",COVID-19 [2]; [7],1.19
same,"Shortness of breath, OR estimate nicotinamide vs. silica",COVID-19 [2]; [7],1.45
same,"Sore throat, OR estimate nicotinamide vs. silica",COVID-19 [2]; [7],9.25
same,"Chest pain, patients with symptom",COVID-19 [2]; [8],3.9%
same,"Cough with sputum, patients with symptom",COVID-19 [2]; [8],3.9%
same,"Cough, patients with symptom",COVID-19 [2]; [8],19.2%
same,"Diarrhoea, patients with symptom",COVID-19 [2]; [8],7.7%
same,"Fatigue, patients with symptom",COVID-19 [2]; [8],30.8%
same,"Fever, patients with symptom",COVID-19 [2]; [8],3.9%
same,"Head cold (rhinorrhoea), patients with symptom",COVID-19 [2]; [8],19.2%
same,"Headache, patients with symptom",COVID-19 [2]; [8],19.2%
same,"Impaired sense of smell, patients with symptom",COVID-19 [2]; [8],23.1%
same,"Impaired sense of taste, patients with symptom",COVID-19 [2]; [8],23.1%
same,"Joint pain, patients with symptom",COVID-19 [2]; [8],3.9%
same,"Loss of appetite, patients with symptom",COVID-19 [2]; [8],0.0%
same,"Muscle pain, patients with symptom",COVID-19 [2]; [8],3.9%
same,"Other (individually reported) symptoms, patients with symptom",COVID-19 [2]; [8],15.4%
same,"Reduced physical performance, patients with symptom",COVID-19 [2]; [8],34.6%
same,"Shortness of breath, patients with symptom",COVID-19 [2]; [8],26.9%
same,"Sore throat, patients with symptom",COVID-19 [2]; [8],3.9%
same,"Vomiting, patients with symptom",COVID-19 [2]; [8],0.0%
same,"Symptom-free, %","COVID-19 [2]; week 2, all COVID-19 patients, n = 28, intention to treat",35.7%
same,"Absolute Risk difference of being symptom-free, 95% Confidence Level","COVID-19 [2]; week 2, all patients",21.4 (−0.6; 43.4) %
same,Relative Risk of being symptom-free,"COVID-19 [2]; week 2, all patients",2.50
same,"Symptom-free, %","COVID-19 [2]; week 2, female patients, n = 17",47.1%
same,"Absolute Risk difference of being symptom-free, 95% Confidence Level","COVID-19 [2]; week 2, female patients",35.9 (8.1-63.8) ^ %
same,Relative Risk of being symptom-free,"COVID-19 [2]; week 2, female patients",4.24
same,"Symptom-free, %","COVID-19 [2]; week 2, male patients, n = 11",18.2%
same,"Absolute Risk difference of being symptom-free, 95% Confidence Level","COVID-19 [2]; week 2, male patients",1.8 (−35.5; 31.9) %
same,Relative Risk of being symptom-free,"COVID-19 [2]; week 2, male patients",0.91
same,"Time from diagnosis to symptom-free, median","COVID-19 [2]; week 2 analysis, all patients",11.0 days
same,"Time from diagnosis to symptom-free, median","COVID-19 [2]; week 2 analysis, female patients",10.5 days
same,"Time from diagnosis to symptom-free, median","COVID-19 [2]; week 2 analysis, male patients",13.0 days
same,"Symptom-free, %","COVID-19 [2]; week 4, all COVID-19 patients, n = 28, intention to treat",39.3%
same,"Absolute Risk difference of being symptom-free, 95% Confidence Level","COVID-19 [2]; week 4, all patients",−3.57 (−22.2; 29.3) %
same,Relative Risk of being symptom-free,"COVID-19 [2]; week 4, all patients",0.92
same,"Symptom-free, %","COVID-19 [2]; week 4, female patients, n = 17",52.9%
same,"Absolute Risk difference of being symptom-free, 95% Confidence Level","COVID-19 [2]; week 4, female patients",2.94 (−30.2; 36.1) %
same,Relative Risk of being symptom-free,"COVID-19 [2]; week 4, female patients",1.06
same,"Symptom-free, %","COVID-19 [2]; week 4, male patients, n = 11",18.2%
same,"Absolute Risk difference of being symptom-free, 95% Confidence Level","COVID-19 [2]; week 4, male patients",−0.12 (−48.2; 24.6) %
same,Relative Risk of being symptom-free,"COVID-19 [2]; week 4, male patients",0.61
same,Median time to resolution of symptoms compared to silica,"COVID-19 [2]; week 4, n = 28 per group",approximately half as long
same,"Time from diagnosis to symptom-free, median","COVID-19 [2]; week 4 analysis, all patients",13.0 days
same,"Time from diagnosis to symptom-free, median","COVID-19 [2]; week 4 analysis, female patients",13.0 days
same,"Time from diagnosis to symptom-free, median","COVID-19 [2]; week 4 analysis, male patients",16.5 days
